Source: ChEMBL document CHEMBL3244056, “Synthesis and some pharmacological properties of [4-threonine, 7-glycine]oxytocin, [1-(L-2-hydroxy-3-mercaptopropanoic acid), 4-threonine, 7-glycine]oxytocin (hydroxy[Thr4, Gly7]oxytocin), and [7-Glycine]oxytocin, peptides with high oxytocic-antidiuretic selectivity” (J Med Chem, 1977)
Starred links: 1 amine or outer side, 2 acyl side, 3 side chain; linkers in the order of their positions; H or OH if unused. Positions of bridges follow the written chain, without caps; N, C: chain ends. Residues, ends and D or L forms follow the SMILES beside them. X1 = O=C([C@H](O)CS[*:2])[*:1]

Legend:
[1] = system: Rattus norvegicus; assay: Antidiuretic activity in iv dosed rat; format: ADME, organism-based, Urine; conditions: in vivo
[2] = Oxytocic potency in rat by uterus assay; format: functional
[3] = Oxytocic potency in rat by uterus assay in presence of 0.5 mM Mg2+; format: functional
[4] = species on record: Oryctolagus cuniculus; assay: Oxytocic potency in rabbit assessed as milk ejection; format: functional
[5] = Oxytocic potency in rat by mammary strip assay; format: functional
[6] = species on record: Rattus norvegicus; assay: Vasopressor activity in rat; format: ADME, organism-based; conditions: in vivo
[7] = Retardation factor, Rf value of the compound in butan-1-ol-water (3.5% in acetic acid, 1.5% in pyridine) (1:1 v/v,upper phase) solvent system; format: physicochemical; conditions: buffer
[8] = species on record: Rattus norvegicus; assay: Ratio of oxytocic potency to antidiuretic activity in rat; set-up: species or system Urine
[9] = Retardation factor, Rf value of the compound in butan-1-ol-acetic acid-water-pyridine (15:3:3:10v/v) solvent system; format: physicochemical; conditions: buffer
[10] = Retardation factor, Rf value of the compound in butan-1-ol-acetic acid-water-ethyl acetate (1:1:1:1 v/v) solvent system; format: physicochemical; conditions: buffer
[11] = species on record: Rattus norvegicus; assay: Oxytocic potency in rat assessed as milk ejection; format: functional
[12] = Retardation factor, Rf value of the compound in butan-1-ol-acetic acid-water (4:1:5 v/v, upper phase) solvent system; format: physicochemical; conditions: buffer

Activity [1] [U/mg] | Activity [6] [U/mg] | Rf [7] | Rf [9] | Rf [10] | Rf [12] | SMILES | Activity [2] [U/mg] | Activity [3] [U/mg] | Activity [4] [U/mg] | Activity [5] [U/mg] | Ratio [8] | Activity [11] [U/mg]
4 |  |  |  |  |  | CC[C@H](C)[C@@H]1NC(=O)[C@H](Cc2ccc(O)cc2)NC(=O)[C@@H](N)CSSC[C@@H](C(=O)N2CCC[C@H]2C(=O)N[C@@H](CC(C)C)C(=O)NCC(N)=O)NC(=O)[C@H](CC(N)=O)NC(=O)[C@H](CCC(N)=O)NC1=O [OXYTOCIN] | 520 | 486 | 543 | 533 |  | 
0.0056 | < 0.01 | 0.17 | 0.75 | 0.74 | 0.3 | CC[C@H](C)[C@@H]1NC(=O)[C@H](Cc2ccc(O)cc2)NC(=O)[C@@H](N)CSSC[C@@H](C(=O)NCC(=O)N[C@@H](CC(C)C)C(=O)NCC(N)=O)NC(=O)[C@H](CC(N)=O)NC(=O)[C@H](CCC(N)=O)NC1=O (H-CYIQNCGLG-NH2; disulfide 1-6) | 65 | 965 |  | 478 | 16600 | 392
1.8 | 0.43 |  |  |  |  | CC[C@H](C)[C@@H]1NC(=O)[C@H](Cc2ccc(O)cc2)NC(=O)[C@@H](N)CSSC[C@@H](C(=O)N2CCC[C@H]2C(=O)N[C@@H](CC(C)C)C(=O)NCC(N)=O)NC(=O)[C@H](CC(N)=O)NC(=O)[C@H]([C@@H](C)O)NC1=O (H-CYITNCPLG-NH2; disulfide 1-6) | 923 | 719 |  |  | 510 | 543
0.004 | < 0.01 | 0.52 | 0.88 | 0.89 | 0.56 | CC[C@H](C)[C@@H]1NC(=O)[C@H](Cc2ccc(O)cc2)NC(=O)[C@H](O)CSSC[C@@H](C(=O)NCC(=O)N[C@@H](CC(C)C)C(=O)NCC(N)=O)NC(=O)[C@H](CC(N)=O)NC(=O)[C@H]([C@@H](C)O)NC1=O (YITNCGLG-NH2; linker N-5 via X1) | 218 | 1002 |  | 623 | 54500 | 950
0.002 | < 0.01 | 0.27 | 0.83 | 0.85 | 0.37 | CC[C@H](C)[C@@H]1NC(=O)[C@H](Cc2ccc(O)cc2)NC(=O)[C@@H](N)CSSC[C@@H](C(=O)NCC(=O)N[C@@H](CC(C)C)C(=O)NCC(N)=O)NC(=O)[C@H](CC(N)=O)NC(=O)[C@H]([C@@H](C)O)NC1=O (H-CYITNCGLG-NH2; disulfide 1-6) | 166 | 857 |  | 490 | 83000 | 802
5.3 | 4.92 |  |  |  |  | CC[C@H](C)[C@@H]1NC(=O)[C@H](Cc2ccc(O)cc2)NC(=O)[C@H](O)CSSC[C@@H](C(=O)N2CCC[C@H]2C(=O)N[C@@H](CC(C)C)C(=O)NCC(N)=O)NC(=O)[C@H](CC(N)=O)NC(=O)[C@H]([C@@H](C)O)NC1=O (YITNCPLG-NH2; linker N-5 via X1) | 4179 | 937 |  | 378 | 790 | 808
